Experimental data published in US11344549B2 (priority 2017, dated 2022).

Tests used:
JAK2 kinase = JAK2 kinase (Homo sapiens (Human), UniProt O60674); details: read-out: JAK2 IC50
JAK1 kinase = JAK1 kinase (Homo sapiens (Human), UniProt P23458); details: read-out: JAK1 IC50
Sequence of JAK1 kinase (P23458 850-1154): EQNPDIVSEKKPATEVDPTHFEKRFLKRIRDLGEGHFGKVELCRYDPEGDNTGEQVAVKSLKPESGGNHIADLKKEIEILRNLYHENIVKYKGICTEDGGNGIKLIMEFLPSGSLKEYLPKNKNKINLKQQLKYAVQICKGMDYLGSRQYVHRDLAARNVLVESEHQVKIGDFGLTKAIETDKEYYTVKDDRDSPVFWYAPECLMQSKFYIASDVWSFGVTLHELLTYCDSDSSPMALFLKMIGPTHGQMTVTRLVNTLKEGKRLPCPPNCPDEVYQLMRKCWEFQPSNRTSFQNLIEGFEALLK

Sequence of JAK2 kinase (O60674 826-1132): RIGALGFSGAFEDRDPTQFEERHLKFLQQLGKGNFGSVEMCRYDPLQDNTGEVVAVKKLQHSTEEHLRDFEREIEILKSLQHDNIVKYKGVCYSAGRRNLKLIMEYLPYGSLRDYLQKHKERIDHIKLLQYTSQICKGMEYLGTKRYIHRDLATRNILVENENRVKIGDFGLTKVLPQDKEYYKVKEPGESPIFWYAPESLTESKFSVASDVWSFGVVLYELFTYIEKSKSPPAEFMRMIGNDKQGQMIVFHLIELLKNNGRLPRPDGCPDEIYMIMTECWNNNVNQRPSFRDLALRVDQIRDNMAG

Compound | IC50 (JAK2 kinase) [nM] | IC50 (JAK1 kinase) [nM]
Cn1cc(Nc2ncc(C(N)=O)c(NCc3ccccc3)n2)cn1 [Example 1, 4-benzylamino-2-((1-methyl-1H-pyrazol-4-yl)amino)pyrimidin-5-carboxamide] | 9.5 | 84.7
COc1ccccc1CNc1nc(Nc2cnn(C)c2)ncc1C(N)=O [Example 2, 4-((2-methoxybenzyl)amino)-2-((1-methyl-1H-pyrazol-4-yl)amino)pyrimidin-5-carboxamide] | 2.19 | 2.53
COc1cccc(F)c1CNc1nc(Nc2cnn(C)c2)ncc1C(N)=O [Example 3, 4-((2-fluoro-6-methoxybenzyl)amino)-2-((1-methyl-1H-pyrazol-4-yl)amino)pyrimidin-5-carboxamide] | 0.57 | 2.81
Cn1cc(Nc2ncc(C(N)=O)c(NCc3c(Cl)cccc3Cl)n2)cn1 [Example 5, 4-((2,6-dichlorobenzyl)amino)-2-((1-methyl-1H-pyrazol-4-yl)amino)pyrimidin-5-carboxamide] | – | 23.4
COCCn1cc(Nc2ncc(C(N)=O)c(NCc3c(F)cccc3F)n2)cn1 [Example 6, 4-((2,6-difluorobenzyl)amino)-2-((1-(2-methoxyethyl)-1H-pyrazol-4-yl)amino)pyrimidin-5-carboxamide] | 1.27 | 29.9
COCCn1cc(Nc2ncc(C(N)=O)c(NCc3c(F)cccc3OC)n2)cn1 [Example 7, 4-((2-fluoro-6-methoxybenzyl)amino)-2-((1-(2-methoxyethyl)-1H-pyrazol-4-yl)amino)pyrimidin-5-carboxamide] | 1.01 | 9.18
Cn1cc(Nc2ncc(C(N)=O)c(NCCCCCO)n2)cn1 [Example 8, 4-((5-hydroxypentyl)amino)-2-((1-methyl-1H-pyrazol-4-yl)amino)pyrimidin-5-carboxamide] | – | 80.3
CC(=O)N1CCC(CNc2nc(Nc3cnn(C)c3)ncc2C(N)=O)CC1 [Example 11, 4-(((1-acetylpiperidin-4-yl)methyl)amino)-2-((1-methyl-1H-pyrazol-4-yl)amino)pyrimidin-5-carboxamide] | 33.3 | –
CC(=O)N1CCC(CCNc2nc(Nc3cnn(C)c3)ncc2C(N)=O)CC1 [Example 12, 4-((2-(1-acetylpiperidin-4-yl)ethyl)amino)-2-((1-methyl-1H-pyrazol-4-yl)amino)pyrimidin-5-carboxamide] | – | 352
CCn1cc(Nc2ncc(C(N)=O)c(NCc3c(F)cccc3F)n2)cn1 [Example 132, 4-[(2,6-difluoro-benzyl)amino]-2-[(1-ethyl-1H-pyrazol-4-yl)amino]pyrimidin-5-carboxamide] | 0.51 | 14.3
CC(C)n1cc(Nc2ncc(C(N)=O)c(NCc3c(F)cccc3F)n2)cn1 [Example 133, 4-[(2,6-difluoro-benzyl)amino]-2-[(1-isopropyl-1H-pyrazol-4-yl)amino]pyrimidin-5-carboxamide] | 0.47 | 22.8
NC(=O)c1cnc(Nc2cnn(C3CC3)c2)nc1NCc1c(F)cccc1F [Example 134, 4-[(2,6-difluoro-benzyl)amino]-2-[(1-cyclopropyl-1H-pyrazol-4-yl)amino]pyrimidin-5-carboxamide] | 1.19 | –
NC(=O)c1cnc(Nc2cnn(C3CCC3)c2)nc1NCc1c(F)cccc1F [Example 135, 4-[(2,6-difluoro-benzyl)amino]-2-[(1-cyclobutyl-1H-pyrazol-4-yl)amino]pyrimidin-5-carboxamide] | 0.61 | 30.3
NC(=O)c1cnc(Nc2cnn(C3CCOCC3)c2)nc1NCc1c(F)cccc1F [Example 137, 4-[(2,6-difluoro-benzyl)amino]-2-[[1-(tetra hydro-2H-pyran-4-yl)-1H-pyrazol-4-yl)amino]pyrimidin-5-carboxamide] | 0.27 | 16.4
NC(=O)c1cnc(Nc2cnn(CC3CCCO3)c2)nc1NCc1c(F)cccc1F (centres unmarked) [Example 138, 4-[(2,6-difluoro-benzyl)amino]-2-[[1-((tetrahydro-furan-2-yl)methyl)-1H-pyrazol-4-yl]amino]pyrimidin-5-carboxamide] | 1.24 | 88.9
CC(C)(O)Cn1cc(Nc2ncc(C(N)=O)c(NCc3c(F)cccc3F)n2)cn1 [Example 145, 4-[(2,6-difluoro-benzyl)amino]-2-[[1-(2-hydroxy-2-methylpropyl)-1H-pyrazol-4-yl]amino]pyrimidin-5-carboxamide] | 2.08 | 20.3

Compound | IC50 (JAK2 kinase) [nM] | IC50 (JAK1 kinase) [nM]
CCn1cc(Nc2ncc(C(N)=O)c(NCc3c(F)cccc3OC)n2)cn1 [Example 150, 4-[(2-fluoro-6-methoxybenzyl)amino]-2-[(1-ethyl-1H-pyrazol-4-yl)amino]pyrimidin-5-carboxamide] | – | 3.22
COc1cccc(F)c1CNc1nc(Nc2cnn(C(C)C)c2)ncc1C(N)=O [Example 151, 4-[(2-fluoro-6-methoxybenzyl)amino]-2-[(1-isopropyl-1H-pyrazol-4-yl)amino]pyrimidin-5-carboxamide] | 0.61 | 2.77
COc1ccccc1CNc1nc(Nc2cnn(CCO)c2)ncc1C(N)=O [Example 172, 4-[(2-methoxybenzyl)amino]-2-[[1-(2-hydroxyethyl)-1H-pyrazol-4-yl]amino]pyrimidin-5-carboxamide] | 0.95 | 15.6
Cc1cccc(C)c1CNc1nc(Nc2cnn(CCO)c2)ncc1C(N)=O [Example 174, 4-[(2,6-dimethyl-benzyl)amino]-2-[[1-(2-hydroxy-ethyl)-1H-pyrazol-4-yl]amino]pyrimidin-5-carboxamide] | 3.06 | 54.7
C=CCCNc1nc(Nc2cnn(C(C)(C)C)c2)ncc1C(N)=O [Example 228, 4-(but-3-en-1-ylamino)-2-((1-(tert-butyl)-1H-pyrazol-4-yl)amino)pyrimidin-5-carboxamide] | 13.9 | –
C=C(C)CNc1nc(Nc2cnn(C(C)(C)C)c2)ncc1C(N)=O [Example 229, 2-((1-tert-butyl-1H-pyrazol-4-yl)amino)-4-((2-methylallyl)amino)pyrimidin-5-carboxamide] | 2.8 | –
CC(C)=CCNc1nc(Nc2cnn(C(C)(C)C)c2)ncc1C(N)=O [Example 230, 2-((1-(tert-butyl)-1H-pyrazol-4-yl)amino)-4-((3-methylbut-2-en-1-yl)amino)pyrimidin-5-carboxamide] | 1.7 | 28.1
C=C(C)CNc1nc(Nc2cnn(C3CCOCC3)c2)ncc1C(N)=O [Example 232, 4-((2-methylallyl)amino)-2-((1-(tetrahydro-2H-pyran-4-yl)-1H-pyrazol-4-yl)amino)pyrimidin-5-carboxamide] | 2 | 34.4
CC(C)=CCNc1nc(Nc2cnn(C3CCOCC3)c2)ncc1C(N)=O [Example 233, 4-((3-methylbut-2-en-1-yl)amino)-2-((1-(tetrahydro-2H-pyran-4-yl)-1H-pyrazol-4-yl)amino)pyrimidin-5-carboxamide] | 0.9 | 6.5
C=CCCNc1nc(Nc2cnn(C3CCOCC3)c2)ncc1C(N)=O [Example 234, 4-(but-3-en-1-ylamino)-2-((1-(tetrahydro-2H-pyran-4-yl)-1H-pyrazol-4-yl)amino)pyrimidin-5-carboxamide] | 1.2 | 31
CC(C)(C)n1cc(Nc2ncc(C(N)=O)c(NCC3CC=CC3)n2)cn1 [Example 236, 2-((1-(tert-butyl)-1H-pyrazol-4-yl)amino)-4-((cyclopent-3-en-1-ylmethyl)amino)pyrimidin-5-carboxamide] | 2.6 | 7.6
C=CCNc1nc(Nc2cnn(C(C)(C)C)c2)ncc1C(N)=O [Example 238, 4-(allylamino)-2-((1-(tert-butyl)-1H-pyrazol-4-yl)amino)pyrimidin-5-carboxamide] | 3.6 | 11.5
C=C(C)CCNc1nc(Nc2cnn(C(C)(C)C)c2)ncc1C(N)=O [Example 242, 2-((1-tert-butyl-1H-pyrazol-4-yl)amino)-4-((3-methylbut-3-en-1-yl)amino)pyrimidin-5-carboxamide] | 1.5 | 8
C=C(C)CCCNc1nc(Nc2cnn(C(C)(C)C)c2)ncc1C(N)=O [Example 244, 2-((1-tert-butyl-1H-pyrazol-4-yl)amino)-4-((4-methylpent-4-en-1-yl)amino)pyrimidin-5-carboxamide] | 3 | 10.8
CC(C)=CCCCNc1nc(Nc2cnn(C(C)(C)C)c2)ncc1C(N)=O [Example 245, 2-((1-tert-butyl-1H-pyrazol-4-yl)amino)-4-((5-methylhex-4-en-1-yl)amino)pyrimidin-5-carboxamide] | 16.9 | 40.8
CC(C)C/C=C/CNc1nc(Nc2cnn(C(C)(C)C)c2)ncc1C(N)=O [Example 246, (E)-2-((1-tert-butyl-1H-pyrazol-4-yl)amino)-4-((5-methylhex-2-en-1-yl)amino)pyrimidin-5-carboxamide] | 42.5 | 345
